Results: PubChem BioAssay AID2060486 (Molecular Pharmacology Branch, DTP, NCI, 2025)

Tested on: IGROV1 complex spheroids (HUVEC, MSC), viability % test/control
Assay: Anticancer human tumor IGROV1 cell line growth inhibition [GQUAD];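 note: spheroids exposed to compounds for 7 days before readout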
Details: for IC50: curve of first compound; for viability, T/C: stronger effect = lower value
Text: DNA G-quadruplex Stabilizer Agents in Combinations in Complex Spheroids
A high-throughput screen of multi-cell type tumor spheroids was designed to identify active combinations of DNA G-quadruplex stabilizer agents and targeted small molecules. Complex spheroids include a stromal component modeled by human endothelial cells (HUVEC) and fibroblasts modeled by human mesenchymal stem cells (MSCs). The concentration ranges selected for each drug and investigational agent were based upon clinically achievable concentrations if the clinical Cmax of the agent was known.
Compounds. The drugs and investigational agents: pidnarulex (CX-5461; NSC782164), APTO-253 (NSC789042), BRACO-19 (NSC847499), peposertib (NSC802822), ceralasertib (NSC780249), elimusertib (NSC800525), camonsertib (NSC841442), AZD-1390 (NSC803789), olaparib (NSC753686), talazoparib (NSC767125), ART-558 (NSC835418), sotorasib (NSC818433), MRTX-1133 (NSC836407), SN-38 (NSC673596), topotecan (NSC609699), etoposide (NSC141540), doxorubicin (NSC123127), gemcitabine (NSC613327), 5-fluorouracil (NSC19893), paclitaxel (NSC125973), vemurafenib (NSC761431), panobinostat (NSC761190), R-306465 (JNJ-16241199; NSC773264), adavosertib (NSC754352), TP-3654 (NSC805149), carboplatin (NSC241240), KSQ-4279 (NSC840948), and staurosporine (NSC755774) were obtained from the National Cancer Institute (NCI) Developmental Therapeutics Program Chemical Repository (34). The FDA-approved anticancer drug set is available from the NCI Developmental Therapeutics Program. […] The stock solutions were prepared in dimethyl sulfoxide (DMSO, Sigma-Aldrich, St. Louis, MO, cat. D2650) at 800-fold the tested concentration and stored at -70 degrees C prior to their use. All drugs and investigational agents were tested over a range starting from a high concentration at or near the clinical Cmax and decreasing in half-log increments. If the clinical Cmax for an agent had not been determined, the highest concentration tested was 10 microM.
2.3 Cell Culture. All cells were maintained in an incubator at 37 degrees C and 5% CO2 with 95% humidity. The PDC lines were cultured according to standard operating procedures established by the NCI PDMR. All PDCs were thawed and cultured in Matrigel-coated flasks prepared with a working solution of 1X Ham's F-12 nutrient mix, without supplementation (Invitrogen, cat. 11765054), 100 U/mL penicillin-streptomycin (Invitrogen, cat. 15140122), and 2.5% Matrigel (Corning Inc., cat. 354248) for the first three passages. The 857933-349-R-J2-PDC line was cultured in 6C/Colon 1B media, which includes advanced DMEM/F-12 (Thermo Fisher Scientific, cat. 12634028), 10 mM HEPES (Thermo Fisher Scientific, cat. 15630080), 1X GlutaMAX supplement (Thermo Fisher Scientific, cat. 35050061), 0.1 mg/mL primocin (InvivoGen, cat. ant-pm-2), 10% defined fetal bovine serum, heat inactivated (HyClone Laboratories Inc., cat. SH30070.03HI), 50% L-WRN conditioned media (ATCC, cat. CRL-3276), 1.25 mM N-Acetyl-L-cysteine (Sigma-Aldrich, cat. A9165), 10 mM nicotinamide (Sigma-Aldrich, cat. N0636), 1X B-27 supplement (Thermo Fisher Scientific, cat. 17504044), 1X N-2 supplement (Thermo Fisher Scientific, cat. 17502048), 10 microM Y-27632 dihydrochloride (Tocris Bioscience, cat. 1254), and 50 ng/mL human EGF recombinant protein (Thermo Fisher Scientific, cat. PHG0311). The 485176-168-R4-J1-PDC line was cultured in Panc media, which includes all 6C/Colon 1B media components plus 100 ng/mL human FGF-10 (Thermo Fisher Scientific, cat. 100-26), 500 nM SB-431542 (Selleckchem, cat. S1067), and gastrin (Tocris, cat. 3006).
[…]

[1] = second compound 0.0316 µM, first compound 0.0316 µM
[2] = second compound 0.0316 µM, first compound 0.1 µM
[3] = second compound 0.0316 µM, first compound 0.316 µM
[4] = second compound 0.0316 µM, first compound 1 µM
[5] = second compound 0.0316 µM, first compound 3.16 µM
[6] = second compound 0.0316 µM, first compound 10 µM
[7] = second compound 0.1 µM, first compound 0.0316 µM
[8] = second compound 0.1 µM, first compound 0.1 µM
[9] = second compound 0.1 µM, first compound 0.316 µM
[10] = second compound 0.1 µM, first compound 1 µM
[11] = second compound 0.1 µM, first compound 3.16 µM
[12] = second compound 0.1 µM, first compound 10 µM
[13] = second compound 0.316 µM, first compound 0.0316 µM
[14] = second compound 0.316 µM, first compound 0.1 µM
[15] = second compound 0.316 µM, first compound 0.316 µM
[16] = second compound 0.316 µM, first compound 1 µM
[17] = second compound 0.316 µM, first compound 3.16 µM
[18] = second compound 0.316 µM, first compound 10 µM
[19] = second compound 1 µM, first compound 0.0316 µM
[20] = second compound 1 µM, first compound 0.1 µM
[21] = second compound 1 µM, first compound 0.316 µM
[22] = second compound 1 µM, first compound 1 µM
[23] = second compound 1 µM, first compound 3.16 µM
[24] = second compound 1 µM, first compound 10 µM
[25] = second compound 3.16 µM, first compound 0.0316 µM
[26] = second compound 3.16 µM, first compound 0.1 µM
[27] = second compound 3.16 µM, first compound 0.316 µM
[28] = second compound 3.16 µM, first compound 1 µM
[29] = second compound 3.16 µM, first compound 3.16 µM
[30] = second compound 3.16 µM, first compound 10 µM
[31] = second compound 10 µM, first compound 0.0316 µM
[32] = second compound 10 µM, first compound 0.1 µM
[33] = second compound 10 µM, first compound 0.316 µM
[34] = second compound 10 µM, first compound 1 µM
[35] = second compound 10 µM, first compound 3.16 µM
[36] = second compound 10 µM, first compound 10 µM

Work on `C#Cc1c(F)ccc2cc(O)cc(-c3ncc4c(N5CC6CCC(C5)N6)nc(OCC56CCCN5CC(F)C6)nc4c3F)c12` (stereo unspecified) + Cc1[nH]c2ccc(F)cc2c1-c1nc2c3cccnc3c3ncccc3c2[nH]1 yielded an IC50 (second compound 0.0316 µM) of over 10000 nM, an IC50 (second compound 0.1 µM) of over 10000 nM and an IC50 (second compound 0.316 µM) of 3920 nM. The IC50 (second compound 1 µM) was under 31.6 nM, the IC50 (second compound 3.16 µM) was under 31.6 nM and the IC50 (second compound 10 µM) was under 31.6 nM. For the same molecule, the viability, T/C [1] was 101%, the viability, T/C [2] was 76.3% and the viability, T/C [3] was 99.2%. The viability, T/C [4] was 78.7%, the viability, T/C [5] was 89.2% and the viability, T/C [6] was 60.1%. The viability, T/C [7] was 88.4%, the viability, T/C [8] was 70.3% and the viability, T/C [9] was 68.4%. For the same molecule, the viability, T/C [10] was 81.6%, the viability, T/C [11] was 91.4% and the viability, T/C [12] was 62.2%. The viability, T/C [13] was 66.2%, the viability, T/C [14] was 40% and the viability, T/C [15] was 69.3%. It also gave a viability, T/C [16] of 58.6%, a viability, T/C [17] of 58.7% and a viability, T/C [18] of 12.7%. The viability, T/C [19] was 2.66%, the viability, T/C [20] was 3.87% and the viability, T/C [21] was 2.81%. The viability, T/C [22] was 3.06%, the viability, T/C [23] was 2.68% and the viability, T/C [24] was 1.82%. The viability, T/C [25] was 3.12%, the viability, T/C [26] was 3.21% and the viability, T/C [27] was 3.09%. It also gave a viability, T/C [28] of 2.69%, a viability, T/C [29] of 2.86% and a viability, T/C [30] of 1.68%. The viability, T/C [31] was 2.87%, the viability, T/C [32] was 3.1% and the viability, T/C [33] was 3.6%. The viability, T/C [34] was 2.65%, the viability, T/C [35] was 2.34% and the viability, T/C [36] was 1.27%.

`CCCS(=O)(=O)Nc1ccc(F)c(C(=O)c2c[nH]c3ncc(-c4ccc(Cl)cc4)cc23)c1F` + Cc1[nH]c2ccc(F)cc2c1-c1nc2c3cccnc3c3ncccc3c2[nH]1 was tested, and the IC50 (second compound 0.0316 µM) was 4760 nM, the IC50 (second compound 0.1 µM) was 5340 nM and the IC50 (second compound 0.316 µM) was 1390 nM. For the same molecule, the IC50 (second compound 1 µM) was under 31.6 nM, the IC50 (second compound 3.16 µM) was under 31.6 nM and the IC50 (second compound 10 µM) was under 31.6 nM. The viability, T/C [1] was 97.9%, the viability, T/C [2] was 95.9% and the viability, T/C [3] was 98.4%. The viability, T/C [4] was 59.4%, the viability, T/C [5] was 80.5% and the viability, T/C [6] was 19.3%. It also gave a viability, T/C [7] of 104%, a viability, T/C [8] of 91.6% and a viability, T/C [9] of 77.5%. For the same molecule, the viability, T/C [10] was 64.8%, the viability, T/C [11] was 82.1% and the viability, T/C [12] was 11.7%. It also gave a viability, T/C [13] of 86.6%, a viability, T/C [14] of 81.1% and a viability, T/C [15] of 81.4%. For the same molecule, the viability, T/C [16] was 53.2%, the viability, T/C [17] was 32.3% and the viability, T/C [18] was 2.23%. For the same molecule, the viability, T/C [19] was 4.32%, the viability, T/C [20] was 3.48% and the viability, T/C [21] was 3.41%. It also gave a viability, T/C [22] of 3.93%, a viability, T/C [23] of 4.28% and a viability, T/C [24] of 3%. It also gave a viability, T/C [25] of 3.26%, a viability, T/C [26] of 3.6% and a viability, T/C [27] of 3.61%. The viability, T/C [28] was 3.81%, the viability, T/C [29] was 3.5% and the viability, T/C [30] was 2.72%. For the same molecule, the viability, T/C [31] was 3.29%, the viability, T/C [32] was 3.66% and the viability, T/C [33] was 4.63%. The viability, T/C [34] was 3.69%, the viability, T/C [35] was 3.96% and the viability, T/C [36] was 2.93%.

`O=C(NO)c1cnc(N2CCN(S(=O)(=O)c3ccc4ccccc4c3)CC2)nc1` + Cc1[nH]c2ccc(F)cc2c1-c1nc2c3cccnc3c3ncccc3c2[nH]1 gave an IC50 (second compound 0.0316 µM) of 98.9 nM, an IC50 (second compound 0.1 µM) of 96.2 nM and an IC50 (second compound 0.316 µM) of 81.9 nM. For the same molecule, the IC50 (second compound 1 µM) was under 31.6 nM, the IC50 (second compound 3.16 µM) was under 31.6 nM and the IC50 (second compound 10 µM) was under 31.6 nM. The viability, T/C [1] was 87.3%, the viability, T/C [2] was 49.5% and the viability, T/C [3] was 12.1%. It also gave a viability, T/C [4] of 0.35%, a viability, T/C [5] of 0.04% and a viability, T/C [6] of 0.07%. For the same molecule, the viability, T/C [7] was 91.5%, the viability, T/C [8] was 47.7% and the viability, T/C [9] was 20.1%. It also gave a viability, T/C [10] of 0.3%, a viability, T/C [11] of 0.05% and a viability, T/C [12] of 0.06%. For the same molecule, the viability, T/C [13] was 91.3%, the viability, T/C [14] was 40.6% and the viability, T/C [15] was 17.2%. For the same molecule, the viability, T/C [16] was 0.3%, the viability, T/C [17] was 0.04% and the viability, T/C [18] was 0.05%. The viability, T/C [19] was 2.48%, the viability, T/C [20] was 1.93% and the viability, T/C [21] was 2.47%. It also gave a viability, T/C [22] of 0.07%, a viability, T/C [23] of 0.03% and a viability, T/C [24] of 0.05%. For the same molecule, the viability, T/C [25] was 1.55%, the viability, T/C [26] was 1.3% and the viability, T/C [27] was 0.5%. The viability, T/C [28] was 0.04%, the viability, T/C [29] was 0.05% and the viability, T/C [30] was 0.07%. For the same molecule, the viability, T/C [31] was 1.75%, the viability, T/C [32] was 1.33% and the viability, T/C [33] was 0.92%. For the same molecule, the viability, T/C [34] was 0.07%, the viability, T/C [35] was 0.11% and the viability, T/C [36] was 0.1%.
